Reference: DBAASP
Converted amounts (≈) assume the structure as drawn.

Tests used:
Assay in all cases: ≥ marks a high value that may be exact or a test limit, other limits are often not marked, values filed in µg/mL are converted to µM
[1] = system: Flavobacterium columnare G4
[2] = system: Yersinia ruckeri SC90-2-4
[3] = system: Pseudomonas fluorescens biotype I W81-11
[4] = system: Aeromonas sobria CR79-1-1
[5] = system: Pseudomonas fluorescens 56-12-10
Aeromonas hydrophila 12 = system: Aeromonas hydrophila 12
[6] = system: Vibrio anguillarum E-3-11
[7] = system: Aeromonas intestinalis 58209
[8] = system: Vibrio anguillarum SGL 8542
[9] = system: Escherichia coli DH5alpha

Q: With `CC[C@H](C)[C@H](N)C(=O)N[C@@H](Cc1ccccc1)C(=O)N[C@@H](Cc1cnc[nH]1)C(=O)N[C@@H](Cc1cnc[nH]1)C(=O)N[C@H](C(=O)N[C@@H](Cc1ccccc1)C(=O)N[C@@H](CCCCN)C(=O)NCC(=O)N[C@H](C(=O)N[C@H](C(=O)N[C@@H](Cc1cnc[nH]1)C(=O)N[C@H](C(=O)NCC(=O)N[C@@H](CCCCN)C(=O)N[C@H](C(=O)N[C@H](C(=O)N[C@@H](Cc1cnc[nH]1)C(=O)N[C@@H](CCCN=C(N)N)C(=O)N[C@@H](CC(C)C)C(=O)N[C@H](C(=O)N[C@H](C(=O)NCC(N)=O)[C@@H](C)O)C(C)C)[C@@H](C)CC)[C@@H](C)O)C(C)C)C(C)C)[C@@H](C)CC)[C@@H](C)CC` [IFHHIFKGIVHVGKTIHRLVTG] as the compound, how does the MIC [1] read?
A: ≥ 56.6 µM

Q: What about the MIC [2] of the same compound?
A: 28.3 µM (≈ 71 µg/mL)

Q: And the MIC [3]?
A: 14.1 µM (≈ 35.5 µg/mL)

Q: What about the MIC [4] of the same compound?
A: 14.1 µM (≈ 35.5 µg/mL)

Q: What about the MIC [5] of the same compound?
A: 14.1 µM (≈ 35.5 µg/mL)

Q: And the MIC (Aeromonas hydrophila 12)?
A: ≥ 160 µM

Q: What about the MIC [6] of the same compound?
A: 28.3 µM (≈ 71 µg/mL)

Q: What about the MIC [7] of the same compound?
A: 14.1 µM (≈ 35.5 µg/mL)

Q: And the MIC [8]?
A: ≥ 56.6 µM

Q: What about the MIC [9] of the same compound?
A: 7.07 µM (≈ 17.7 µg/mL)
